Laboratory results from ChEMBL document CHEMBL3137667, “[Drug-induced liver injury; fourteenth updated edition of the bibliographic database of liver injuries and related drugs]” (Gastroenterol Clin Biol, 2004).

Assays:
[1] = Highest frequency of moderate liver toxicity observed during clinical trials, expressed as a percentage. [column '% BIOL' in source]; settings: human
[2] = Highest frequency of acute liver toxicity observed during clinical trials, expressed as a percentage. [column '% AIGUE' in source]; settings: human
[3] = human, serum
[4] = human, serum; remark: listed apart in the source
[5] = human
[6] = human; remark: listed apart in the source
[7] = human; remark: listed apart in the source
[8] = human, serum, 4383 h
[9] = human; remark: listed apart in the source
[10] = human; remark: listed apart in the source
[11] = human; remark: listed apart in the source
[12] = human; remark: listed apart in the source
[13] = human; remark: listed apart in the source
[14] = human; remark: listed apart in the source
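For Hepatotoxicity (association with vascular disease) in this document: count of indexed literature references reporting vascular liver injury in humans, e.g. peliosis hepatitis, hepatic veno-occlusive disease or Budd-Chiari syndrome.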
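For Hepatotoxicity (benign tumour) in this document: value is a count of indexed literature references citing a benign tumour confirmed by histopathology.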
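For Hepatotoxicity (choleostasis) in this document: human cholestatic liver injury, shown by histopathology or by peak ALT or AST elevation over alkaline phosphatase ratio below 2, value counts indexed literature reports.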
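For Hepatotoxicity (chronic liver disease) in this document: chronic liver injury confirmed by histopathology or persistently raised serum aminotransferase activity beyond 6 months, value given as the count of indexed literature references.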
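For Hepatotoxicity (cirrhosis) in this document: value is a count of indexed literature references reporting cirrhosis confirmed by histopathology.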
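For Hepatotoxicity (cytolytic) in this document: human cytolytic liver injury, shown by histopathology or by a ratio above 5 of peak ALT or AST elevation to alkaline phosphatase elevation, value counts indexed references.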
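For Hepatotoxicity (granulomatous hepatitis) in this document: value is a count of indexed literature references reporting granulomatous liver disease confirmed by histopathology.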
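For Hepatotoxicity (malignant tumour) in this document: malignant tumour confirmed by histopathology, value gives the count of indexed literature references reporting it.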
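For Hepatotoxicity (severe hepatitis) in this document: human clinical data: severe hepatitis, meaning potentially life-threatening liver failure or clinically observed cases, the value counts how many indexed literature references report it.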
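For Hepatotoxicity (steatosis) in this document: steatosis confirmed by histopathology, value is the count of indexed references.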

Row | Molecule | Hepatotoxicity (moderate) [1] [%] | Hepatotoxicity (acute) [2] [%] | Hepatotoxicity (moderate) [3] | Hepatotoxicity (acute) [4] | Hepatotoxicity (cytolytic) [5] | Hepatotoxicity (choleostasis) [6] | Hepatotoxicity (severe hepatitis) [7] | Hepatotoxicity (chronic liver disease) [8] | Hepatotoxicity (cirrhosis) [9] | Hepatotoxicity (granulomatous hepatitis) [10] | Hepatotoxicity (association with vascular disease) [11] | Hepatotoxicity (steatosis) [12] | Hepatotoxicity (malignant tumour) [13] | Hepatotoxicity (benign tumour) [14] | Hepatotoxicity (moderate) ([1]; Liver) [%] | Hepatotoxicity (acute) ([2]; Liver) [%] | Hepatotoxicity (cytolytic) ([5]; Liver) | Hepatotoxicity (choleostasis) ([6]; Liver) | Hepatotoxicity (severe hepatitis) ([7]; Liver) | Hepatotoxicity (granulomatous hepatitis) ([10]; Liver)
1 | CC=CC1=C(C(=O)O)N2C(=O)[C@@H](NC(=O)[C@H](N)c3ccc(O)cc3)[C@H]2SC1 [CEFPROZIL] | 25 | 0.6 | 42 | 1 | 0 | 1 | 0 | 0 | 0 | 0 | 0 | 0 | 0 | 0 | – | – | – | – | – | –
2 | GENTAMICIN | 14.3 | 0 | 7 | 0 | 0 | 0 | 0 | 0 | 0 | 0 | 0 | 0 | 0 | 0 | – | – | – | – | – | –
3 | O=C(O)P(=O)(O)O [FOSCARNET] | 12 | 0 | 2 | 0 | 0 | 0 | 0 | 0 | 0 | 0 | 0 | 0 | 0 | 0 | – | – | – | – | – | –
4 | O=C(O)Cn1c(=O)n(Cc2ccc(Br)cc2F)c(=O)c2ccc(Cl)cc21 [ZENARESTAT] | 9.5 | 0 | 1 | 0 | 0 | 0 | 0 | 0 | 0 | 0 | 0 | 0 | 0 | 0 | – | – | – | – | – | –
5 | CCN1CCC[C@H]1CNC(=O)c1c(OC)ccc(Br)c1OC [REMOXIPRIDE] | 6.4 | 0 | 7 | 0 | 0 | 0 | 0 | 0 | 0 | 0 | 0 | 0 | 0 | 0 | – | – | – | – | – | –
6 | NCC[C@H](O)C(=O)N[C@@H]1C[C@H](N)[C@@H](O[C@H]2O[C@H](CN)[C@@H](O)[C@H](O)[C@H]2O)[C@H](O)[C@H]1O[C@H]1O[C@H](CO)[C@@H](O)[C@H](N)[C@H]1O [AMIKACIN] | 15.3 | 0 | 6 | 0 | 0 | 0 | 0 | 0 | 0 | 0 | 0 | 0 | 0 | 0 | – | – | – | – | – | –
7 | Nc1ccc(S(=O)(=O)Nc2nccs2)cc1 [SULFATHIAZOLE] | – | – | 1 | 0 | – | – | – | 0 | 0 | – | 0 | 0 | 0 | 0 | 0 | 0 | 0 | 0 | 0 | 0
8 | CAPROMAB PENDETIDE | < 1 | 0 | 1 | 0 | 0 | 0 | 0 | 0 | 0 | 0 | 0 | 0 | 0 | 0 | – | – | – | – | – | –
9 | CCN1CCN(C(=O)N[C@@H](C(=O)N[C@@H]2C(=O)N3[C@@H]2SC(C)(C)[C@@H]3C(=O)O)c2ccccc2)C(=O)C1=O.C[C@]1(Cn2ccnn2)[C@H](C(=O)O)N2C(=O)C[C@H]2S1(=O)=O | 33.3 | 0 | 46 | 0 | 0 | 0 | 0 | 0 | 0 | 0 | 0 | 0 | 0 | 0 | – | – | – | – | – | –
10 | DENILEUKIN DIFTITOX | 45 | 10 | 3 | 1 | 1 | 0 | 0 | 0 | 0 | 0 | 0 | 0 | 0 | 0 | – | – | – | – | – | –
11 | COCC1=C(C(=O)O)N2C(=O)[C@@H](NC(=O)/C(=N\OC)c3csc(N)n3)[C@H]2SC1 [CEFPODOXIME] | 33.3 | 0 | 29 | 0 | 0 | 0 | 0 | 0 | 0 | 0 | 0 | 0 | 0 | 0 | – | – | – | – | – | –
12 | O=C(Cc1cccs1)N[C@@H]1C(=O)N2C(C(=O)[O-])=C(C[n+]3ccccc3)CS[C@H]12 [CEPHALORIDINE] | 0 | 0 | 1 | 0 | 0 | 0 | 0 | 0 | 0 | 0 | 0 | 0 | 0 | 0 | – | – | – | – | – | –
13 | CN1C[C@H](C(=O)N[C@]2(C)O[C@@]3(O)[C@@H]4CCCN4C(=O)[C@H](Cc4ccccc4)N3C2=O)C=C2c3cccc4[nH]cc(c34)C[C@H]21 [ERGOTAMINE] | 35.7 | 0 | 1 | 0 | 0 | 0 | 0 | 0 | 0 | 0 | 0 | 0 | 0 | 0 | – | – | – | – | – | –
14 | O=C1NC(=S)NC(=O)C1C(=O)Nc1ccccc1 [MERBARONE] | 28.6 | 3.8 | 3 | 1 | 0 | 0 | 0 | 0 | 0 | 0 | 0 | 0 | 0 | 0 | – | – | – | – | – | –
15 | C=C(OC)C(=O)Nc1cc(OC)c(OC)cc1C(=O)O[C@H]1C[C@H](O[C@@H]2C(=O)C(NC(=O)OC)=C3/C(=C\CSSSC)[C@]2(O)C#C/C=C\C#C[C@@H]3O[C@@H]2O[C@H](C)[C@@H](NO[C@H]3C[C@H](O)[C@H](SC)[C@@H](C)O3)[C@H](O)[C@H]2O[C@H]2C[C@H](OC)[C@@H](NC(C)C)CO2)O[C@@H](C)[C@H]1O [ESPERAMICIN A1] | 10.7 | 0 | 1 | 0 | 0 | 0 | 0 | 0 | 0 | 0 | 0 | 0 | 0 | 0 | – | – | – | – | – | –
